Data taken from patent publication US10080774B2, “Oncolytic adenovirus armed with therapeutic genes” (priority 2002, dated 2018).
≈ marks a conversion by molar mass, not a printed value.

Experiments:
HU-VEC-C = test: Tube formation (vascular-like structures) assay; type: cell-based, human; settings: 400-800 ng/ML, 18 h
Procedure: This assay will be performed using an in vitro angiogenesis kit (Chemicon, Temecula, Calif.) according to the manufacturer's instructions. Wells in a 96-well plate will be coated with ECMatrix solution, and 5×10^3 cells will be plated in triplicate wells in a volume of 50 μl of EGM (Clonetics Corp.) containing 2% FBS. The cells will be incubated for 18 h at 37° C., and tube formation will be evaluated by phase-contract microscopy. To determine the viability of cells in these assays, cells will be stained with Hoechst 33342 (5 μg/ml, Sigma) and propidium iodide (2.5 μg/ml, Sigma) for 5 min at 37° C. and analyzed by fluorescence microscopy.
These studies were performed to elucidate the role of Ang-2 role in the process of angiogenesis.

CAM = test: Angiogenesis in vivo, CAM model; set-up: species or system chicken; settings: 72 h after treatment
Procedure: Fertilized chicken eggs (SPAFAS; Charles River Lab., Wilmington, Mass.) will be incubated at 37° C. at 55% humidity for 9 days. An artificial air sac will be created over a region containing small blood vessels in the CAM as described (Brooks et al., 1999). A small window will be cut in the shell after removing 3 ml of albumen. Filter disks (6 mm in diameter) will be coated with cortisone acetate in absolute ethanol (3 mg/mL). The CAM will be locally treated with filter disks saturated with a solution containing bFGF (50 ng/disk; R&D Systems, Minneapolis, Minn.) and VEGF121/rGel (at 1 or 10 nM), rGel (at 1 or 10 nM), or buffer (PBS). The filter will be placed on the CAM in a region with the lowest density of blood vessels, and in the vicinity, as reference, of a large vessel. Angiogenesis will be monitored by photography 3 days after treatment. Images will be captured using an Olympus stereomicroscope (SZ×12) and Spot™ Basic software (Diagnostic Instruments, Inc.). The relative vascular area will be determined by measuring the area taken up by blood vessels. […] The number of blood vessel branch points will be quantify by two researchers, and compared to the treatment controls (Brooks et al., 1999).
Ang-2 inhibits angiogenesis in vivo (CAM model). […] Vascular responses were assessed 72 h later.

Tie2 = Tie2 (Homo sapiens, UniProt Q02763); test: Tie2 phosphorylation, immunoprecipitation; type: cell-based; settings: U-87 MG
Tie2, sequence (Q02763 23-1124): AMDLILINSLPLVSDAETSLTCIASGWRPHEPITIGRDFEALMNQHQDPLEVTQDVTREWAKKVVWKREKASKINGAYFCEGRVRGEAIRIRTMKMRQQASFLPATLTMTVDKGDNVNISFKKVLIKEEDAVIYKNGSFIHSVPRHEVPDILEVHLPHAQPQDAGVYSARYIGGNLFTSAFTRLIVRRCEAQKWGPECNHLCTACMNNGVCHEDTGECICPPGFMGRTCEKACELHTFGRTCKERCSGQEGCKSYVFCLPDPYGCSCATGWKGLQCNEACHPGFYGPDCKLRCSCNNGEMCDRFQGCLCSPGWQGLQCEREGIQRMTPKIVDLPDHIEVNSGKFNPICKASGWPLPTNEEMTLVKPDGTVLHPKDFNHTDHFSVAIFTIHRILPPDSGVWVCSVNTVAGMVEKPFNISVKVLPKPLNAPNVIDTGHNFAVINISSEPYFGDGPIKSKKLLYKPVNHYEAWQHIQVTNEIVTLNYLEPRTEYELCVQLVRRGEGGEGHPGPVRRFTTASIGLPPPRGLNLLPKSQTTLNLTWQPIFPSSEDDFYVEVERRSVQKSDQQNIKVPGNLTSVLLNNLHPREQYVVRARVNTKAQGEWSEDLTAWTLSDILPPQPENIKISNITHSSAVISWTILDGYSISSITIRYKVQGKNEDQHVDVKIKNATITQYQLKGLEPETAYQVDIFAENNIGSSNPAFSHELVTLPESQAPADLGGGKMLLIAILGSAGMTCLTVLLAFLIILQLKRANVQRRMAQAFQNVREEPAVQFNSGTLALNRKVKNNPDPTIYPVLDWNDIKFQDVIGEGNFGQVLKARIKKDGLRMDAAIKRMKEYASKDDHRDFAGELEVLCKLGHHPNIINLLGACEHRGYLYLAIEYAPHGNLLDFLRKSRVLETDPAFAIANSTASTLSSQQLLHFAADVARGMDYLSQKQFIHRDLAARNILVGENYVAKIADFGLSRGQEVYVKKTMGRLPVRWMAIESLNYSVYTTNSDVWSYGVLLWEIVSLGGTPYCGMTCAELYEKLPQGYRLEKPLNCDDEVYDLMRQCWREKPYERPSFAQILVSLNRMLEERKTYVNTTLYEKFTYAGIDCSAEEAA
Procedure: To explore the regulation of Tie2 signaling by Angs in U-87 MG cells, Tie2 was immunoprecipitated from membrane fractions of U-87 MG cells treated with rAng1 (500 ng/ml) for 10 min, and phosphorylation of Tie2 was addressed using anti-phosphotyrosine antibody.

EGFRvIII = biological target: T1, EGFRvIII (Homo sapiens, UniProt P00533, DELINS30-297G); test: Membrane fluorescence staining with anti-EGFRvIII peptide-FITC, flow cytometry; type: binding; settings: 1 μM, 30 min
T1 construct: expressed in transfected cells; host or cells: U-87 MG stably transfected with mutant EGFR (U87MG.ΔEGFR; Nishikawa et al., 1994)
Procedure: Briefly, the inventors performed membrane fluorescence staining of single-cell suspensions after incubating U-87 MG, U87.wtEGFR, and U-87.ΔEGFRvIII (Nishikawa et al., 1994) with the anti-EGFRvIII peptide (PEPCH1)-FITC (1 μM) (Campa et al., 2000) for 30 min. The cells were then washed twice with PBS and then analyzed for fluorescence with an EPICS XL-MCL flow cytometer (Beckman-Coulter Inc., Miami, Fla.) using a 488 nm argon laser for excitation. Fluorescence was detected with a 520 nm band-pass filter, and all cytometric data was analyzed with the System II software (Beckman-Coulter Inc.). Data are shown as the percentages of FICT-positive cells (empty graph) compared to mock-treated cells (solid graphs) from a representative experiment.

U251 cells = test: Cell mixing experiments, Tc99O4 uptake after Δ24-NIS infection; type: cell-based, human; settings: U251 infected with Δ24-NIS
Procedure: Cells incubated with virus for 1.5 h then washed extensively and mixed at different percentages with uninfected U251 cells. Uptake assays were then performed at 48 h and values are given as fold increase (ratios) of Tc^99O4 within the cells compared to control cells.
U251MG and U87MG glioma cell lines are transiently transfected, then incubated with ^99mTcO4. These in vitro techniques are modifications of an assay developed by Petrich et al. (2002). Briefly, cells are plated into 24-well plates and allowed to achieve 90% confluence. Various titers of Δ24-NIS are added, incubating and infecting the cells for 2 h. The cells are then washed, and the assay performed at 24, 48, and 72 h. The cells are pre-incubated at 37° C. for 30 min in 1 ml of HEPES-buffered Hanks balanced salt solution (bHBSS). […] Cellular radioactivity is released with 1 ml ice-cold 100% ethanol for 20 min, and counted in a cross-calibrated gamma counter. Protein content of the 6 wells per cell line are determined using a BCA assay kit.
Because of the concern that an oncolytic virus could destroy the cells expressing the NIS transgene and blunt the ability to concentrate-adequate amounts of radionuclide, a study were performed to determine the percentage of cells required to obtain significant concentrations of isotope. […] The result is shown in FIG. 11 and is expressed as fold increase (ratios) over control cells.

U-87 MG xenograft = test: Survival with antiangiogenic compounds, glioma xenograft mouse model; type: in vivo, athymic mice; settings: P>0.5 logrank
Procedure: Testing the effect of antiangiogenic compounds on the survival of human glioma xenograft mouse model. Comparative survival analysis of the anticancer effect of different antiangiogenic treatments have been performed using the U-87 MG xenograft mouse model). PTK787/ZK 222584 was evaluated as a VEGFR inhibitor (Thomas et al., 2003); and imatinib/Glivec as a potent PDGFRβ inhibitor (Manley et al., 2002). Briefly, human glioma cells (5×10^5 U-87 MG) were engrafted into the caudate nucleus of athymic mice using a guide-screw system as previously described (Fueyo et al., 2003). […] Neither group treatment had long-term survivors.

[1] = Organ uptake after injection of W/Re-188 generator eluant; type: in vivo; settings: 100 μCi
Procedure: Urine and later fecal accumulation (at 24 hours) is also observed.
Whole-mount sections of animals were prepared after tail vein injection of ^188Re elutant produced by a Rhenium generator at 100 μCi, which provides additional conformation of the anatomic localization of the images provided by gamma camera assessment. […] The bladder where the isotope is being eliminated is also visualized. Individual organs can be harvested and isotope counts can be determined per gram of tissue as a quantitative measure of radionuclide uptake.

parental U251MG cells = test: Cell viability assay, 5-FC dose response; type: cell-based; settings: Homo sapiens, U-251, 120 h, 5 days
Procedure: (§1) Note the shift to the left of the IC50 curve for the hyCD stable-transfected U251MG cells in the presence of 5-FC. IC50 values for both cultures are indicated.
(§2) U251MG and U87MG cell lines were grown to 95% monolayer confluence. The cells were trypsinized and harvested with 0.25% trypsin/EDTA, plated in 6-well tissue culture plates, and allowed to adhere overnight at 37° C. in 5% CO2 humidified incubators. 5-FU or 5-FC in serial 0.5-log concentrations in 100 μl aliquots was added directly to the cells to achieve final concentrations, as previously described (Miller, 2002). Cells were incubated at 37° C. for 5 days and cell viability by cellular respiration was determined using 3-(4,5-methylthiazole-2-yl)-5-(3-carboxymethoxy-phenyl)-2-(4-sulfonyl)-2H-tetrazolium) (Promega, Madison, Wis.) according to the manufacturer's protocol. The cell survival fraction was measured at each drug concentration as the ratio of absorbance at 490 nm relative to untreated cells. This calculation was normalized for background absorbance of the culture medium alone. The cell survival fraction was plotted against the logarithm of the drug concentration, and IC50 values were calculated using a sigmoidal dose-response curve with variable slope in GraphPad Prism 3.01.

[2] = system: hyCD stable-transfected U251MG cells; test: Cell viability assay, 5-FC dose response; type: cell-based, human
Procedure: as §1, §2

[3] = cited from earlier work

With “rhAng-2: recombinant angiopoietin 2 protein” the “formation of vascular-like structures” value (HU-VEC-C) was “lost their ability to form vascular-like structures”, the “vascular response in CAM” value (CAM) was “dramatically decreased newly sprouting angiogenic vessels” and the “effect on Ang1-induced Tie2 phosphorylation” value (Tie2) was “Inhibition of Tie2 phosphorylation”.

For “HFLIIGFMRRALCGA [PEPCH1, anti-EGFRvIII peptide, FITC-labeled]”, the “binding to EGFRvIII-expressing cells” value (EGFRvIII) was “specific binding”.

With `[O-][Cl+3]([O-])([O-])O` [sodium perchlorate] the “inhibition of NIS activity” value (U251 cells) was “complete inhibition of NIS activity”.

In the case of `Clc1ccc(Nc2nnc(Cc3ccncc3)c3ccccc23)cc1` [PTK787], the survival versus vehicle (U-87 MG xenograft) is reported as “did not significantly improve the survival”.

For `[O]=[188Re](=[O])(=[O])[O-]` [^188ReO4, Rhenium-188 perrenate], the “tissues with uptake of 188ReO4” value [1] was “thyroid and stomach”.

For `Cc1ccc(NC(=O)c2ccc(CN3CCN(C)CC3)cc2)cc1Nc1nccc(-c2cccnc2)n1` [Imatinib], the survival versus vehicle (U-87 MG xenograft) was “did not significantly improve the survival”.

With `Nc1nc(=O)[nH]cc1F` [5-FC, 5-fluorocytosine] the IC50 (parental U251MG cells) was 3090 µg/mL (≈ 24 mM), the IC50 ([2]; Homo sapiens, U-251, 120 h, U251MG cells expressing hyCD, 5 days) was 12.4 µg/mL (≈ 0.0961 mM) and the “increased sensitivity of hyCD-expressing versus parental cells to 5-FC” value ([2]; U251MG) was “approximately 3 orders of magnitude”.

B1: bakers' yeast CD: cytosine deaminase previously isolated from Saccharomyces cerevisiae (protein, UniProt Q12178 1-158, looked up)
Cytosine deaminase: MVTGGMASKWDQKGMDIAYEEAALGYKEGGVPIGGCLINNKDGSVLGRGHNMRFQKGSATLHGEISTLENCGRLEGKVYKDTTLYTTLSPCDMCTGAIIMYGIPRCVVGENVNFKSKGEKYLQTRGHEVVVVDDERCKKIMKQFIDERPQDWFEDIGE
For B1, the “time activity is maintained in solution” value ([3]; 4° C., pH 5-9) is given as “at least 48 hr” and the “time to lose half of activity” value ([3]; 37° C., crude preparation) is given as 1 h.
